For six molecules, EC50 results are on record in patent publication US20250042916A1 (ACONCAGUA BIO, INC., priority 2023, published 2025).

What all share (assay type): cell-based
The target in assay [1] is human calcitonin receptor (CTR) and RAMP3 (AMY3) in COS-7 cells (Homo sapiens, UniProt O60896+P30988). The experiment in a line: Amylin Receptor cAMP Assay II. The conditions noted are these: value marked **: Amylin Receptor cAMP Assay II; COS-7/AMY3 cells; read-out: Amylin Receptor cAMP Stimulation Activity: EC50. From the text:
Amylin Receptor cAMP Assay II
AMYRs are heterodimers of the class B calcitonin (CT) G-protein-coupled receptor (CTR) and receptor activity-modifying proteins (RAMPs). All three RAMPs can interact with the CTR and form AMY1, AMY2, AMY3 with RAMP1, RAMP2 and RAMP3, respectively. Like other class B1 GPCRs, the CT receptor family is canonically coupled to Gs-mediated cAMP production, and measurement of cAMP accumulation has been the primary assay used to determine peptide selectivity and potency.
To optimize functional activity directed toward Gas coupling, COS-7 cells were stably transfected with human calcitonin receptor (CTR) and RAMP3, simultaneously. 100× concentration of compound working solutions were prepared with 4-fold serial dilution in 384-well Echo LDV plate (Labcyte, Cat #LP-0200-BC). 200 nL/well 100× concentration of compound working solutions were moved to 384-well white microplate (Perkin Elmer, Cat #6007680) using Labcyte ECHO550. […]
After incubation, the cAMP assay signal was generated using cAMP dynamic 2 kit (Revvity, Cat #62AM4PEC). […] The samples were then incubated at room temperature for 1 hour protected from light. the fluorescence was read at 665 and 615 nm with Reader PerkinElmer EnVision 2105.

In assay [2] the target is T1, human calcitonin receptor (CTR) in COS-7 cells (Homo sapiens, UniProt P30988).
T1 construct: expressed in transfected cells; host or cells: COS-7 (COS7-human CTR Clone #2)
T1 sequence (P30988 25-474): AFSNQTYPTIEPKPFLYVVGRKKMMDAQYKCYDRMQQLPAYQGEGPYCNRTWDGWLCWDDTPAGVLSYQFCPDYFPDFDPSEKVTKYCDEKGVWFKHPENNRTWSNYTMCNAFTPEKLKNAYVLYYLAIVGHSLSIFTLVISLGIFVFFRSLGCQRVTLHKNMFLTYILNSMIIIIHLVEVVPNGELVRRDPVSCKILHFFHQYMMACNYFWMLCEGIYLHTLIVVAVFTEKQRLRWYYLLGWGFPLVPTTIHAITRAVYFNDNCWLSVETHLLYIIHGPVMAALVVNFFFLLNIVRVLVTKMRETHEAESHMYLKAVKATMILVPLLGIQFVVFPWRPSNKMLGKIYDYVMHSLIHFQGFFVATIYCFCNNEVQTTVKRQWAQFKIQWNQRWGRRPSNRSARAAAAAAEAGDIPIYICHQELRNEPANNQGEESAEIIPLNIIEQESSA
The experiment in a line: Calcitonin Receptor (CTR) cAMP Assay. The conditions noted are these: COS7-human CTR Clone #2 cells; read-out: Calcitonin Receptor cAMP Stimulation Activity: EC50. From the text: Calcitonin Receptor (CTR) cAMP Assay
The calcitonin receptor (CTR) belongs to the subfamily of GPCRs known as the secretin or ‘B’ family of GPCRs. Like other class B1 GPCRs, the CT receptor family is canonically coupled to Gs-mediated cAMP production, and measurement of cAMP accumulation has been the primary assay used to determine peptide selectivity and potency.
(§1) To optimize functional activity directed toward Gas coupling, COS-7 cells were stably transfected with human calcitonin receptor (CTR) to create COS7-human CTR Clone #2 stable cell line. 100× concentration of compound working solutions were prepared with 4-fold serial dilution in 384-well Echo LDV plate (Labcyte, Cat #LP-0200-BC). 200 nL/well 100× concentration of compound working solutions were moved to 384-well white microplate (Perkin Elmer, Cat #6007680) using Labcyte ECHO550. 1×10^5 cells/mL COS7-human CTR Clone #2 cell suspensions prepared with assay buffer [HBSS containing 20 mM HEPES (Gibco, Cat #15630-080), 0.5 mM IBMX (Sigma, Cat #15879) and 0.1% Casein (Sigma, Cat #C4765)], 20 μL cell suspensions were added to each well of previous generated assay plate which already contains 200 nL compound at 100× concentration using ThermoFisher Multidrop Combi (2000 cells/well). Seal the plate and incubate at 37° C. with 5% CO2 for 30 min.
After incubation, the cAMP assay signal was generated using cAMP dynamic 2 kit (Revvity, Cat #62AM4PEC). 10 μL cAMP-d2 working solution was added to each well, followed by […] Anti-cAMP antibody-cryptate working solution which was added to each well using CERTUS FLEX LIQUID DISPENSER. The samples were then incubated at room temperature for 1 hour protected from light. the fluorescence was read at 665 and 615 nm with Reader PerkinElmer EnVision 2105.

In a further assay the target is Amylin Receptor (Homo sapiens, UniProt O60896+P30988). The experiment in a line: Amylin Receptor cAMP stimulation, assay version (I or II) not marked. To be noted: values without footnote mark; assay I or II not stated. As for the experimental part:
To optimize functional activity directed toward Gas coupling, COS-7 cells were stably transfected with human calcitonin receptor (CTR) and RAMP3, simultaneously. 100× concentration of compound working solutions were prepared (Agilent Technologies Bravo) with 4-fold serial dilution in 384-well Echo LDV plate (Labcyte, Cat #LP-0200). 100 nL/well 100× concentration of compound working solutions were moved to 384-well white low volume plate (Greiner, Cat #784075) using Labcyte ECHO550. 1×10^5 cells/mL COS-7/CTR or COS-7/AMY3 (HD Biosciences) cell suspensions prepared with assay buffer [DPBS containing 0.5 mM IBMX (Sigma, Cat #15879) and 0.1% BSA (GENVIEW, Cat #FA016-100 g)], 10 μL cell suspensions were added to each well of previous generated assay plate which already contains 100 nL compound at 100× concentration using ThermoFisher Multidrop Combi (1000 cells/well). Seal the plate and incubate at 37° C. with 5% CO2 for 30 min.
After incubation, the cAMP assay signal was generated using cAMP Hi-range Kit (Cisbio). 5 μL cAMP-d2 working solution was added to each well, followed by 5 μL Anti-cAMP antibody-cryptate working solution which was added to each well using ThermoFisher Multidrop Combi. The samples were then incubated at room temperature for 1 hour protected from light. the fluorescence was read at 665 and 615 nm with Reader PerkinElmer EnVision.
as §1, with “and RAMP3, simultaneously.” for “to create COS7-human CTR Clone #2 stable cell line.”, “COS-7/AMY3” for “COS7-human CTR Clone #2”
After incubation, the cAMP assay signal was generated using cAMP dynamic 2 kit (Revvity, Cat #62AM4PEC). 10 μL cAMP-d2 working solution was added to each well, followed by 10 μL Anti-cAMP antibody-cryptate working solution which was added to each well using CERTUS FLEX LIQUID DISPENSER. The samples were then incubated at room temperature for 1 hour protected from light. the fluorescence was read at 665 and 615 nm with Reader PerkinElmer EnVision 2105.

Sequence of Amylin Receptor (O60896 24-148, one chain of several): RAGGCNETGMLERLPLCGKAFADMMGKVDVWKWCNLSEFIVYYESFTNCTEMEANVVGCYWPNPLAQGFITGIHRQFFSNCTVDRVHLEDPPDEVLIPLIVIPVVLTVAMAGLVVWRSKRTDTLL
Sequence of human calcitonin receptor (CTR) and RAMP3 (AMY3) in COS-7 cells (O60896 24-148, one chain of several): as above

As for `Cc1nnc(-c2c(CCC3CCN(C(=O)OCc4ccccc4)CC3)nc(CC(C)C)c(C(N)=O)c2-c2ccc(C(=O)NCc3ccc(F)c(F)c3)s2)o1` [Compound 205, Benzyl 4-[2-[5-carbamoyl-4-[5-[(3,4-difluorophenyl)methylcarbamoyl]-2-thienyl]-6-isobutyl-3-(5-methyl-1,3,4-oxadiazol-2-yl)-2-pyridyl]ethyl]piperidine-1-carboxylate], the EC50 in assay [1] was 66 nM; in assay [2], 6 nM. The molecule `Cc1nnc(-c2c(CCc3ccc(F)cc3)nc(CC(C)C)c(C(N)=O)c2-c2cc3ccnc(NCc4cncc(F)c4)c3s2)o1` [Compound 206, 6-[2-(p-fluorophenyl)ethyl]-4-(7-{[(5-fluoro-3-pyridyl)methyl]amino}-1-thia-6-aza-2-indenyl)-2-isobutyl-5-(5-methyl-1,3,4-oxadiazol-2-yl)nicotinamide] returned an EC50 on Amylin Receptor of 41.5 nM. For the molecule `Cc1cnc(-c2c(CCC3CCOCC3)nc(CC(C)C)c(C(N)=O)c2-c2cc3ccnc(N[C@@H]4CCc5ncccc54)c3s2)o1` [Compound 207, 4-{7-[(R)-4-aza-1-indanylamino]-1-thia-6-aza-2-indenyl}-2-isobutyl-5-(5-methyl-1,3-oxazol-2-yl)-6-[2-(tetrahydro-2H-pyran-4-yl)ethyl]nicotinamide], the EC50 on Amylin Receptor came to 64.3 nM. On to `COc1cccc2c1CC[C@H]2Nc1nccc2cc(-c3c(C(N)=O)c(CC(C)C)nc(CCC4CCOCC4)c3-c3nnc(C)o3)sc12` [Compound 208, 4-{7-[(R)-4-methoxy-1-indanylamino]-1-thia-6-aza-2-indenyl}-2-isobutyl-5-(5-methyl-1,3,4-oxadiazol-2-yl)-6-[2-(tetrahydro-2H-pyran-4-yl)ethyl]nicotinamide], for which the EC50 in assay [2] amounted to 0.581 nM; on Amylin Receptor, 18.9 nM.

At Amylin Receptor, `CCc1nc(CC(C)C)c(C(N)=O)c(-c2cc3ccnc(N[C@@H]4CCc5ccc(F)cc54)c3s2)c1-c1nnc(C)o1` [Compound 209, 4-{7-[(R)-6-fluoro-1-indanylamino]-1-thia-6-aza-2-indenyl}-6-ethyl-2-isobutyl-5-(5-methyl-1,3,4-oxadiazol-2-yl)nicotinamide] yielded an EC50 of 96.9 nM. On to `Cc1nnc(-c2c(COc3ccc(F)cc3)nc(CC(C)C)c(C(N)=O)c2-c2ccc(C(=O)N[C@@H]3CCc4ccccc43)s2)o1` [Compound 210, N—[(R)-1-indanyl]-5-{3-carbamoyl-6-[(p-fluorophenoxy)methyl]-2-isobutyl-5-(5-methyl-1,3,4-oxadiazol-2-yl)-4-pyridyl}-2-thenamide], for which a half-maximal response at Amylin Receptor (EC50) required 546 nM.
